The results in this text go back to patent publication US20250360124A1, “NOVEL RAS INHIBITORS” (KHR BIOTEC GMBH, priority 2022, published 2025).

Structures can show the parent of a compound that is named as a salt.

Holding throughout (type): cell-based
Experiment [1] deals with KRAS dependent cells. The experiment is described as follows: MTT assay for cell viability in 96 well cell culture plate. The following applies: 48 h treatment, KRAS dependent cells incl. G12C/Y96D mutation, FIG. 3a. As to the method:
FIGS. 3a) and 3b): MTT assay for cell viability in 96 well cell culture plate Cells were treated with Quinacrine dihydrochloride hydrate for 48 h and cell viability was evaluated by MTT assay. DMSO-treated cells were set as 1. The results shown are mean±SEM from 3 independent experiments.
G12C/Y96D mutation is normally seen in patients, who develop resistance to G12C inhibitor. Thus, patients, who are resistant to G12C inhibitors can still be treated with Quinacrine dihydrochloride.
On the technique in general: Formazan colour is commonly taken as a measure of viable cells.

Experiment [2] deals with sNF96.2 cells. The experiment is described as follows: MTT assay for cell viability in 96 well plate, RASOpathie model. The following applies: 48 h treatment.
Experiment [3] has as its system HCT-116 cells. The experiment is described as follows: Soft agar colony formation assay, MTT readout. The following applies: Homo sapiens, growth in soft agar, colonies stained with MTT, absorbance 570 nm. As for the experimental part: (§1) FIGS. 2a) and 2b): MTT assay for cell growth
(§2) Metabolic activity was quantified using Cell Proliferation Kit I (Roche, Basel, Switzerland). Cells were seeded in 96-well cell culture plates, using 5000 cells per well for NCI-H358 cells. After treatment, 10 μl of MTT solution was added and incubated for 2 h in CO2 incubator. Then 100 μl of solubilization buffer was added to each well and incubated overnight in CO2 incubator. Cell viability, assessed by the amount of metabolized MTT, was quantified by measuring absorbance at 570 nm.
(§3) MTT assay for the growth of different tumor cell lines with RAS mutations in soft agar with Quinacrine dihydrochloride.
(§4) NCI-H358, H358, H2122, ASPC-1, HCT-116, T24 and HT1080 cells were used for the soft agar colony formation assay. After the treatment with Quinacrine dihydrochloride hydrate, the colonies were stained with MTT and the value was quantified by measuring absorbance at 570 nm after solubilization. The results represent mean±SEM from 3 independent experiments.

Experiment [4] has as its system T24 cells. The experiment in a line: Soft agar colony formation assay, MTT readout. To be noted: Homo sapiens, T-24, growth in soft agar, colonies stained with MTT, absorbance 570 nm. As for the experimental part:
as §1, §2, §3, §4

Experiment [5] has as its system ASPC1 cells. The experiment in a line: Soft agar colony formation assay, MTT readout. To be noted: Homo sapiens, growth in soft agar, colonies stained with MTT, absorbance 570 nm. As for the experimental part:
as §1, §2, §3, §4

Experiment [6] concerns NCI-H2122 cells. The experiment is described as follows: Soft agar colony formation assay, MTT readout. The following applies: Homo sapiens, growth in soft agar, colonies stained with MTT, absorbance 570 nm. As to the method: as §1, §2, §3, §4
In experiment [7] the test system is NCI-H358 cells. The experiment is described as follows: Soft agar colony formation assay, MTT readout. The following applies: Homo sapiens, growth in soft agar, colonies stained with MTT, absorbance 570 nm. As to the method: as §1, §2, §3, §4
Experiment [8] has as its system HT1080 cells. The experiment is described as follows: Soft agar colony formation assay, MTT readout. The following applies: Homo sapiens, HT-1080, growth in soft agar, colonies stained with MTT, absorbance 570 nm. As for the experimental part: as §1, §2, §3, §4
Experiment [9] addresses T1, HRAS G12V (Homo sapiens, UniProt P01112, G12V).
T1 construct: K, N and HRAS G12V (full length) was cloned with Xho I and Bgl II to LgBit; expressed in transfected cells
The experiment in a line: NanoBit assay for RAS activation (LgBiT-RAS / SmBiT-CRAF RBD). The following applies: H-RAS G12V with CRAF RBD; 2 h with inhibitor, serum free DMEM; FIG. 1. As for the experimental part: (§5) FIG. 1a) and 1b): NanoBit assay for RAS activation (KRAS G12V, NRAS G12V, HRAS G12V)
(§6) N-terminal LgBiT and C-terminal SmBIT construct was purchased from Promega and K, N and HRAS G12V (full length) was cloned with Xho I and Bgl II to LgBit and CRAF Ras binding domain (1-149) was cloned with EcoRI and Bgl II to SmBit. For transfections, 1 μg or 2 μg of (12 well/6 well) plasmids were transfected into cells with 0.5 mM of PEI reagent in 100 μl or 200 μl PBS. One day after transfection, cells were harvested and seeded into 96 well white plates, half area (Greiner). After an additional day the medium was changed to serum free DMEM and the cells were incubated for 2 h with inhibitors. NanoGlo assay was performed according to the manufacturer's instructions. The luminescence was measured using Tecan infinite (Tecan). DMSO-treated cells were set as 1. The results shown are mean mean±SEM from at least 3 independent experiments.

Experiment [10] addresses T2, KRAS G12V (Homo sapiens, UniProt P01116, G12V).
T2 construct: K, N and HRAS G12V (full length) was cloned with Xho I and Bgl II to LgBit; expressed in transfected cells
The experiment is described as above. The following applies: K-RAS G12V with CRAF RBD; 2 h with inhibitor, serum free DMEM; FIG. 1. As for the experimental part:
as §5, §6

Experiment [11] has as its target T3, NRAS G12V (Homo sapiens, UniProt P01111, G12V).
T3 construct: K, N and HRAS G12V (full length) was cloned with Xho I and Bgl II to LgBit; expressed in transfected cells
The description is as above. The following applies: N-RAS G12V with CRAF RBD; 2 h with inhibitor, serum free DMEM; FIG. 1. As to the method: as §5, §6

T2 sequence (P01116 1-188 isoform P01116-2 G12V): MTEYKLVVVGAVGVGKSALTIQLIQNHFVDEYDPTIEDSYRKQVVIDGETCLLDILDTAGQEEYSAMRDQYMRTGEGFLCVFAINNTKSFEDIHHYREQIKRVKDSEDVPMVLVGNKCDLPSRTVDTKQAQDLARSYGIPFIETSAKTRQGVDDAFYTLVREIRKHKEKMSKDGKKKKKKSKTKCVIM
T1 sequence (P01112 whole entry G12V): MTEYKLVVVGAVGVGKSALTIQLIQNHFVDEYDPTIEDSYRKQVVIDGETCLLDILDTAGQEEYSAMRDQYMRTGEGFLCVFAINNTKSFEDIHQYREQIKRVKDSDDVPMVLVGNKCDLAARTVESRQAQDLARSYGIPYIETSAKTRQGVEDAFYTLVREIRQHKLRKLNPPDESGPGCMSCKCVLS
T3 sequence (P01111 whole entry G12V): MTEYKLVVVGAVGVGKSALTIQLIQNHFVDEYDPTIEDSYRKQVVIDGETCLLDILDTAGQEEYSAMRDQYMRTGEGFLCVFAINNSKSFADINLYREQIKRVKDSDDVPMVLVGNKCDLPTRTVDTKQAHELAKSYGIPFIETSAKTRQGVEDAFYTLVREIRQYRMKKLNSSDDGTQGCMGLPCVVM

For orientation: IC50 means the concentration needed to halve the response being measured. Low readings indicate greater potency, high ones weaker potency. Consider `CCN(CC)CCCC(C)Nc1c2ccc(Cl)cc2nc2ccc(OC)cc12` (centres unmarked) [Quinacrine dihydrochloride hydrate, 4-N-(6-chloro-2-methoxyacridin-9-yl)-1-N,1-N-diethylpentane-1,4-diamine;hydrate;dihydrochloride], for which, in experiment [1], the “inhibition of cell viability” value was “inhibits KRAS dependent cells irrespective of the presence of mutation”. Besides, the half-inhibitory concentration (IC50) in experiment [2] amounted to 4.51 µM; in experiment [3], 5.5 µM; in experiment [4], 4 µM; in experiment [5], 4.28 µM; in experiment [6] it was 2.48 µM; in experiment [7], 5.1 µM. This compound came in with an IC50 in experiment [8] of 149 µM. Also, the “inhibition of RAS activation (NanoBit luminescence)” value in experiment [9], in experiment [10] and in experiment [11] was “inhibits” each time.
